Test results: patent US8476448B2, “Solid form of 4-[[(6-chloropyridin-3-yl)methyl](2,2-difluoroethyl)amino]furan-2(5H)-one” (Bayer Cropscience AG, priority 2009, dated 2013)

Experiment: Stability of the novel solid form on prolonged storage
Format: physicochemical

Q: Which “thermodynamic stability / conversion into another form” value does the source give for `O=C1C=C(N(Cc2ccc(Cl)nc2)CC(F)F)CO1` [novel solid form, 4-[[(6-chloropyridin-3-yl)methyl](2,2-difluoroethyl)amino]furan-2(5H)-one] here?
A: not converted into another form
